# What was measured:
# Helicobacter pylori [1] = test: Urease test of gastric mucosa biopsy material; assay type: in vivo; settings: share of patients positive, n = 10
# From the text: (§1) There were enrolled 80 patients aged 19 to 57 years in the study: males and females with newly diagnosed gastric and duodenal ulcer, five from them with Zollinger-Ellison syndrome.
# (§2) All patients were divided into 8 groups of 10 patients each, 4 groups of them were experimental: the declared dosage forms on the base of PPI and prebiotic were orally administered by them. For the first group active components of the composition were omeprazole and a lactulose; for the second group—pantoprazole and prebiotic lactitol; for the third group—lansoprazole, and prebiotic inulin; for the fourth group—rabeprazole and prebiotic amino acids (glutamic acid). 5th, 6th, 7th and 8th groups were control: patients of the 5th group received monotherapy by omeprazole; patients of the 6th group—by lansoprazole; patients of the 7th group—esomeprazole and patients of the 8th group of patients received standard therapy for the elimination of H. pylori: omeprazole, metronidazole and clarithromycin.
# (§3) All patients received treatment according to the similar regimen: took the composition of PPI and prebiotic 1-2 times a day within 14 days.
# 2. Urease test. The biopsy material of the gastric mucosa was examinated for the presence of the urease—enzyme specific for Helicobacter pylori (Helicobacter Test INFAI).
# Helicobacter pylori [2] = test: Microbiological method: isolation of H. pylori culture from patient material, before and after therapy; assay type: in vivo; settings: share of patients positive, n = 10
# From the text: as §1, §2, §3
# 4. Microbiological method. Inoculation and isolation of pure culture of H. pylori from the biopsy material of the mucosa, obtained by gastroduodenoscopy.
# Before the beginning and after the termination of the eradication therapy all 80 patients have been enrolled in the clinical trials were microbiologically tested on the presence of H. pylori, lactobacilli and bifidobacteria in the stomach and duodenum content.
# The material was analyzed in microbiological laboratory of the Pasteur Institute of Epidemiology and Microbiology, St. Petersburg.
# Strains of H. pylori were identified on the base of analysis of colony and cell morphology, cultural, biochemical and tinctorial properties of microorganisms. Lactobacillus strains isolated in the material from the intestine additionally were identified on catalase and oxidase activity.
# The bacterium quantity in the material was estimated by calculation of colonies on dense nutrient mediums that were represented in the form of Ig CFU/ml.
# Helicobacter pylori [3] = test: Cytological test of the biopsy material of the gastric mucosa; assay type: in vivo; settings: share of patients positive, n = 10
# From the text: as §1, §2, §3
# 1. Cytological and histological examination of imprint smear of the biopsy material of the gastric antrum mucosa, obtained by gastroscopy. Thus, microcolonies of Helicobacter pylori are detected using special stain.
# gastric acid secretion = settings: compared with PPI of the first generation; cited from earlier work
# [4] = after therapy (1-2 times a day, 14 days)
Compound,Urease test (Helicobacter pylori [1]; after therapy (14 days)),Urease test (Helicobacter pylori [1]; before therapy),Isolation of Helicobacter pylori from stomach content (Helicobacter pylori [2]; [4]),"Isolation of Helicobacter pylori from stomach content (Helicobacter pylori [2]; before therapy, peptic ulcer)",Cytological test of the biopsy material of the gastric mucosa (Helicobacter pylori [3]; after therapy (14 days)),Cytological test of the biopsy material of the gastric mucosa (Helicobacter pylori [3]; before therapy),"Kept pH value <4 in stomach, above PPI of the first generation (gastric acid secretion)"
"COc1ccc2[nH]c([S+]([O-])Cc3ncc(C)c(OC)c3C)nc2c1 (stereo not shown) [5th group, omeprazole]",30%,70%,50%,100%,40%,80%,–
"Cc1c(OCC(F)(F)F)ccnc1C[S+]([O-])c1nc2ccccc2[nH]1 (stereo not shown) [6th group, lansoprazole]",60%,70%,60%,100%,40%,60%,–
"COc1ccc2nc([S@@+]([O-])Cc3ncc(C)c(OC)c3C)[nH]c2c1 [7th group, esomeprazole]",40%,60%,50%,100%,40%,70%,10-15%

# Source: patent US20160136194A1, “Pharmaceutical composition comprising a proton pump inhibitor and a prebiotic for the treatment of ulcerous lesions of the stomach and duodenum” (priority 2010, published 2016)
